The values below come from patent publication US20060029743A1, “Wood preservatives and methods of wood preservation” (priority 2004, published 2006).

Assay [1] deals with Postia placenta. Description: Soil block test (AWPA E10-01, modified), SYP blocks. The note with it: for Average weight loss: 3 months. Here is the method:
(§1) For the soil block tests, the protocol listed as AWPA (American Wood Preservers' Association) standard E10-01 was used, with some modifications that are noted.
(§2) For pressure treatment, wood blocks (¾ inch cubes) were made from Southern yellow pine (SYP) or birch dried at about 40° C. to constant weight, and weighed before pressure treatment. In a typical experiment, blocks were submerged in an appropriate treatment solution in an autoclave. A vacuum of 10 to 15 inch Hg (380 to 510 torr) was applied for 30 min, followed by a pressure of 150 psi (1.034 MPa) for 1 hr. The treatment solution was then removed and a vacuum of 10 to 15 inch Hg (380 to 510 torr) was applied again to the blocks for 15 min. Excess treatment solution on the surface was allowed to evaporate (30 min in a laboratory fume hood) before the blocks were either weighed or stored in a sealed plastic bag and weighed at a later time.
(§3) For the soil block test, wood blocks were conditioned in a vented incubator at 40° C. until they reached a constant weight (16 to 18 hrs). Blocks were then autoclaved at 100° C. for 30 min under dry cycle. Soil samples with a water holding capacity of 40% were used for these tests. 60 mL of water and 92-100 g of soil were added into a 228 mL French square bottle, and autoclaved at 121° C. for 30 min. A feeder strip, ⅛″×1⅛″×1⅜″ (˜0.31 cm×2.86 cm×3.49 cm), birch for birch blocks and SYP for SYP blocks, was placed on the top of the soil. A testing block was placed on top of the feeder strip and the bottle contents inoculated with an agar strip (˜3 mm×30 mm) containing freshly grown fungus (listed in the results). For brown rot fungi (Postia placenta), SYP blocks and feeder strips were used. For white rot (Irpex lacteus), birch blocks and feeder strips were used. The bottles were loosely capped and allowed to incubate at ˜75% humidity and 25° C. for 3 months. Then the blocks were removed from the bottles and dried at 40° C. to constant weight in a vented incubator (16-18 hr). The weight of each block was determined and the percent weight loss was calculated.
(§4) Blocks were allowed to age for a week in the fume hood after treatment. Half of the blocks were subjected to leaching with water for an additional week before undergoing the soil block test. For leaching, blocks were placed in a beaker and 30 mL of water per block were added. Blocks were allowed to incubate at room temperature under constant stirring, with daily change of water for one week.
SYP blocks were pressure-treated with this solution as above (Example 2). After treatment, the blocks were divided into groups and allowed to age in the hood for either two days or 14 days. The blocks were then placed in a beaker and submerged under water (50 mL water per block), under constant stirring for two weeks. […]

Assay [2] has as its system Irpex lacteus. Put plainly: Soil block test (AWPA E10-01, modified), birch blocks. Conditions: for Average weight loss: 3 months. As for the experimental part: as §1, §2, §3, §4
For assay [3], the system named is Phanerochaete chrysosporium. Description: 6-well plate assay, minimal inhibitory concentration. The class given is cell-based. The note with it: Phanerodontia chrysosporium, 168 h; 6-well agar plate; lowest concentration with no growth after seven days; read-out: Effectiveness at Inhibiting Wood-Rotting Fungi, WR3 (minimal inhibitory concentration). Here is the method: (§5) The minimal inhibitory concentration of fungicides against eight fungi was determined in 6-well microtiter plates. Minimal inhibitory concentration is defined as the lowest concentration at which no fungus growth is evident after seven days. A group of eight fungi were used in a screen to identify potential active ingredients to preserve wood. The eight fungi, their classification, and the growth media used to culture them are listed below:
(§6) Growth media were purchased from Difco (from Beckton Dickinson and Co., Sparks, Md.). The growth media were added to water to 2% w/v and autoclaved at 121° C. for 30 min. Autoclaved media were allowed to cool down to ˜50° C. Test chemicals were dissolved in DMSO (dimethyl sulfoxide) individually at 10 mg/mL to generate stock solutions. An appropriate amount of a stock solution was then added to the appropriate growth medium at 50° C. to make up the test media containing various concentrations of individual test chemicals. 10 mL of the medium was added to each well of a 6-well plate and allowed to solidify at room temperature. For each plate, the first well had no chemical, and the remaining five wells contained a particular test chemical at five different concentrations. Eight such plates were prepared for each chemical, using the eight media listed above for the eight test organisms.
(§7) After the media solidified and cooled, a plug (˜2 mm×2 mm) of agar growth medium with fresh grown mycelium from the appropriate fungal culture was used to inoculate each well. The plate was placed in an incubator, and the growth of the fungus monitored. After 4 to 7 days, the growth was scored manually.

For assay [4], the system named is Chaetomium globosum. The assay is described as above. The class given is cell-based. Conditions: Chaetomium globosum, 168 h; 6-well agar plate; lowest concentration with no growth after seven days; read-out: Effectiveness at Inhibiting Wood-Rotting Fungi, SR1 (minimal inhibitory concentration). As for the experimental part:
as §5, §6, §7

The subject of assay [5] is Irpex lacteus. Described as above. The class given is cell-based. The note with it: Irpex lacteus, 168 h; 6-well agar plate; lowest concentration with no growth after seven days; read-out: Effectiveness at Inhibiting Wood-Rotting Fungi, WR2 (minimal inhibitory concentration). Here is the method: as §5, §6, §7
In assay [6] the test system is Gloeophyllum trabeum. Described as above. The class given is cell-based. Conditions: Gloeophyllum trabeum, 168 h; 6-well agar plate; lowest concentration with no growth after seven days; read-out: Effectiveness at Inhibiting Wood-Rotting Fungi, BR2 (minimal inhibitory concentration). Here is the method: as §5, §6, §7
Assay [7] concerns Postia placenta. The assay is described as above. The class given is cell-based. The note with it: Rhodonia placenta, 168 h; 6-well agar plate; lowest concentration with no growth after seven days; read-out: Effectiveness at Inhibiting Wood-Rotting Fungi, BR1 (minimal inhibitory concentration). Here is the method: as §5, §6, §7
Assay [8] deals with Trametes versicolor. Described as above. The note with it: Trametes versicolor, 168 h; 6-well agar plate; lowest concentration with no growth after seven days; read-out: Effectiveness at Inhibiting Wood-Rotting Fungi, WR1 (minimal inhibitory concentration). The class given is cell-based. As for the experimental part: as §5, §6, §7
Assay [9] deals with Antrodia vaillantii. The description is as above. The class given is cell-based. Conditions: Fibroporia vaillantii, 168 h; 6-well agar plate; lowest concentration with no growth after seven days; read-out: Effectiveness at Inhibiting Wood-Rotting Fungi, BR3 (minimal inhibitory concentration). Here is the method: as §5, §6, §7

≈ marks a conversion by molar mass, not a printed value.

`C[Si](Cn1cncn1)(c1ccc(F)cc1)c1ccc(F)cc1` [Flusilazole]: the Average weight loss in [1] (SYP blocks pressure-treated with 50 ppm solution in 5% acetic acid) turned out to be 29%; in assay [1] (SYP blocks pressure-treated with 100 ppm solution in 5% acetic acid), 19%; in assay [1] (SYP blocks pressure-treated with 200 ppm solution in 5% acetic acid) it was 3.3%; in assay [2] (birch blocks pressure-treated with 50 ppm solution in 5% acetic acid), 19.5%; in [2] (birch blocks pressure-treated with 100 ppm solution in 5% acetic acid), 21.7%; in assay [2] (birch blocks pressure-treated with 200 ppm solution in 5% acetic acid), 11%. Also, the “Protection against decay (in words)” value in assay [1] (SYP blocks, 200 ppm flusilazole solution) is “protected against decay”; in assay [2] (birch blocks, 200 ppm flusilazole solution) it was “significantly protected from decay”. Moreover, the MIC was 1 to 100 µg/mL (≈ 3.17 to 317 µM) in [3]; < 1 µg/mL in assay [4]; 1 to 100 µg/mL (≈ 3.17 to 317 µM) in assay [5]; 1 to 100 µg/mL (≈ 3.17 to 317 µM) in [6]; < 1 µg/mL in assay [7]; < 1 µg/mL in [8]. In addition, the MIC in [9] was < 1 µg/mL.
